This passage reports IC50 results from patent US10035789B2, “Compounds useful for treating disorders related to RET” (BLUEPRINT MEDICINES CORPORATION, priority 2016, dated 2018).

In one assay the target is T1, RET V804L (Homo sapiens, UniProt P07949, V804L).
T1 construct: purchased ProQinase 1096-0000-1
Briefly: RET V804L Gatekeeper Mutant Assay at KM (Caliper electrophoretic mobility shift). Format: biochemical. The settings on record: 10 μM ATP, 25° C., 120 minutes.

A further assay deals with T2, wild type RET (Homo sapiens, UniProt P07949).
T2 construct: purchased ProQinase 1090-0000-1
Briefly: RET Wild Type Assay at KM (Caliper electrophoretic mobility shift). The class given is biochemical. The conditions noted are these: 25 μM ATP, 25° C., 120 minutes.

T1 sequence (P07949 29-1114 V804L): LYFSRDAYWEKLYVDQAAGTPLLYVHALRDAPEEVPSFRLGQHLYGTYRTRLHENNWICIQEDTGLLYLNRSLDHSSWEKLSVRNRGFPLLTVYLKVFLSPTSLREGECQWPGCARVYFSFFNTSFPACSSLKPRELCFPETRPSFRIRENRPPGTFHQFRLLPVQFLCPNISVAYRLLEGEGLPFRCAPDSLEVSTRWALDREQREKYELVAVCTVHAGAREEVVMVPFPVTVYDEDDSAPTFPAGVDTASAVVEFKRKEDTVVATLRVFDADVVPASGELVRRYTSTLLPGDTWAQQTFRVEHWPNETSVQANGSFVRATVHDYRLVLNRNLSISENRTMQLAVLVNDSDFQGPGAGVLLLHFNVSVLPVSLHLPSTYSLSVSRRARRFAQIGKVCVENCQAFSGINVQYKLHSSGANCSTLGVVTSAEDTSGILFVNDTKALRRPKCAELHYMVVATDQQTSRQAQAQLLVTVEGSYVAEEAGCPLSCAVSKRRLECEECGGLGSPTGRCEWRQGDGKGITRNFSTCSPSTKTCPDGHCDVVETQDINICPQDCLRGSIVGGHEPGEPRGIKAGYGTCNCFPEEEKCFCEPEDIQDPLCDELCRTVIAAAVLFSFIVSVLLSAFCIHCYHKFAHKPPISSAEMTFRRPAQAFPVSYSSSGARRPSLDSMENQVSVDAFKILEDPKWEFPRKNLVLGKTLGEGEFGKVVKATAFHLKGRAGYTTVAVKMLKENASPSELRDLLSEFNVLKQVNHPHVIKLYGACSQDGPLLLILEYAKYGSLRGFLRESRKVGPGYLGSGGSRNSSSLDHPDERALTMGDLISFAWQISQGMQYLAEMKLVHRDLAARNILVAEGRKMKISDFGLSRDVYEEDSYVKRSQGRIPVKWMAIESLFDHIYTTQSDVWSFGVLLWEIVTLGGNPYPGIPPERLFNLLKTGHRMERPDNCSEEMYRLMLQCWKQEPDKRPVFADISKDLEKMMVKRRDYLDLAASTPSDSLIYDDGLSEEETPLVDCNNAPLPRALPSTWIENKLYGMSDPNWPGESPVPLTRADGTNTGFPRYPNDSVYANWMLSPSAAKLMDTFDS
T2 sequence (P07949 29-1114): as the sequence (P07949 29-1114 V804L) above, with L776V counted along it

Turning to `Cc1cc(Nc2cc(C3CC3)[nH]n2)nc([C@@]2(O)CC[C@H](C(=O)NCc3ccc(-n4cc(F)cn4)nc3)C2)c1` [Compound 127], the concentration for half-maximal inhibition (IC50) on RET V804L and on wild type RET was less than 10 nM in each case.
With `Cc1cc(Nc2cc(C)[nH]n2)nc([C@]2(O)CC[C@H](C(=O)N[C@@H](C)c3ccc(-n4cc(F)cn4)nc3)C2)c1` [Compound 120], the 50% inhibitory concentration (IC50) on RET V804L and on wild type RET was 10 to 100 nM each time.
As for `Cc1cc(Nc2cc(C)[nH]n2)nc([C@]2(O)CC[C@@](C)(C(=O)N[C@@H](C)c3ccc(-n4cc(F)cn4)nc3)C2)c1` [Compound 128], the IC50 at RET V804L and at wild type RET was less than 10 nM each time.
Consider `Cc1cc([C@@H]2CC[C@@](C)(C(=O)N[C@@H](C)c3ccc(-n4cc(F)cn4)nc3)C2)nc(Nc2cc(C)[nH]n2)n1` (single isomer, unassigned) [Compound 116, (1R,3R or 1S,3S)—N—((S)-1-(6-(4-fluoro-1H-pyrazol-1-yl)pyridin-3-yl)ethyl)-1-methyl-3-(6-methyl-2-((5-methyl-1H-pyrazol-3-yl)amino)pyrimidin-4-yl)cyclopentane-1-carboxamide], for which the 50% inhibitory concentration (IC50) on RET V804L and on wild type RET was less than 10 nM each time.
As for `Cc1cc([C@@H]2CC[C@](C)(C(=O)N[C@@H](C)c3ccc(-n4cc(F)cn4)nc3)C2)nc(Nc2cc(C)[nH]n2)n1` (single isomer, unassigned) [Compound 117, (1R,3R or 1S,3S)—N—((S)-1-(6-(4-fluoro-1H-pyrazol-1-yl)pyridin-3-yl)ethyl)-1-methyl-3-(6-methyl-2-((5-methyl-1H-pyrazol-3-yl)amino)pyrimidin-4-yl)cyclopentane-1-carboxamide], the concentration for half-maximal inhibition (IC50) at RET V804L and at wild type RET was less than 10 nM throughout.
In the case of `Cc1cc(Nc2cc(C)[nH]n2)nc([C@@]2(O)CC[C@](C)(C(=O)N[C@@H](C)c3ccc(-n4cc(F)cn4)nc3)C2)c1` [Compound 129], the IC50 on RET V804L and at wild type RET was less than 10 nM throughout.
On to `Cc1cc(Nc2cc(C)[nH]n2)nc([C@@H]2CC[C@@](C)(C(=O)N[C@@H](C)c3ccc(-n4cc(F)cn4)nc3)C2)n1` [Compound 115], for which the IC50 on wild type RET was less than 10 nM.
Regarding `Cc1cc(Nc2cc(C)[nH]n2)nc([C@@]2(O)CC[C@H](C(=O)N[C@@H](C)c3cnc(-n4cc(F)cn4)cn3)C2)c1` [Compound 124], the IC50 on RET V804L and at wild type RET was less than 10 nM in each case.
On to `Cc1cc(Nc2cc(C)[nH]n2)nc(C2(O)CCC(C(=O)NCc3ccc(-n4cc(Cl)cn4)nc3)C2)c1` (mixture of isomers) [Compound 126], for which the IC50 on RET V804L and on wild type RET was less than 10 nM each time.
In the case of `Cc1cc(Nc2cc(C)[nH]n2)nc(C2(O)CCC(C(=O)N[C@@H](C)c3cnc(-n4cc(F)cn4)cn3)C2)c1` (mixture of isomers) [Compound 123], the IC50 at RET V804L and on wild type RET was less than 10 nM throughout.
Take `Cc1cc(Nc2cc(C)[nH]n2)nc(C2(O)CCC(C(=O)N[C@@H](C)c3ccc(-n4cc(F)cn4)nc3)C2)c1` (stereo partly shown) [Compound 118]: the IC50 at RET V804L and at wild type RET was less than 10 nM throughout.
Consider `Cc1cc(Nc2cc(C)[nH]n2)nc([C@@]2(O)CC[C@@H](C(=O)N[C@@H](C)c3ccc(-n4cc(F)cn4)nc3)C2)c1` [Compound 119], for which the IC50 on RET V804L and on wild type RET was less than 10 nM in each case.
With `Cc1cc(Nc2cc(C)[nH]n2)nc([C@]2(O)CC[C@@H](C(=O)N[C@@H](C)c3cnc(-n4cc(F)cn4)cn3)C2)c1` [Compound 125], the IC50 was less than 10 nM at RET V804L and 10 to 100 nM at wild type RET.
For `Cc1cc(Nc2cc(C)[nH]n2)nc([C@H]2CC[C@@H](C(=O)N[C@@H](C)c3ccc(-n4cc(F)cn4)nc3)C2)n1` (single isomer, unassigned) [Compound 108] the same measures were 10 to 100 nM and 10 to 100 nM.
Consider `Cc1cc(Nc2cc(C)[nH]n2)nc([C@@H]2CC[C@](C)(C(=O)N[C@@H](C)c3ccc(-n4cc(F)cn4)nc3)C2)n1` [Compound 112], for which the values for the concentration for half-maximal inhibition (IC50) on RET V804L and on wild type RET were 10 to 100 nM and more than 100 nM, respectively.
For `Cc1cc(Nc2cc(C)[nH]n2)nc([C@H]2CC[C@H](C(=O)N[C@@H](C)c3ccc(-n4cc(F)cn4)nc3)C2)n1` (single isomer, unassigned) [Compound 110] the same measures were less than 10 nM and less than 10 nM.
For the compound `Cc1cc(Nc2cc(C)[nH]n2)nc([C@@]2(O)CC[C@H](C(=O)NCc3ccc(-n4cccn4)nc3)C2)c1` [Compound 104], the IC50 at RET V804L is less than 10 nM; at wild type RET it was 10 to 100 nM.
The corresponding values for `Cc1cc(Nc2cc(C)[nH]n2)nc([C@@H]2CC[C@H](C(=O)N[C@@H](C)c3ccc(-n4cc(F)cn4)nc3)C2)n1` (single isomer, unassigned) [Compound 107] are 10 to 100 nM and 10 to 100 nM.
The corresponding values for `Cc1cc(Nc2cc(C)[nH]n2)nc([C@@]2(O)CC[C@H](C(=O)N[C@@H](C)c3ccc(-n4cc(F)cn4)nc3)C2)c1` (single isomer, unassigned) [Compound 122] are less than 10 nM and less than 10 nM.
The corresponding values for `CCOc1ccc(CNC(=O)C2CC[C@](O)(c3cc(C)cc(Nc4cc(C5CC5)[nH]n4)n3)C2)cc1` (stereo partly shown) [Compound 105] are less than 10 nM and less than 10 nM.
For the compound `Cc1cc(Nc2cc(C)[nH]n2)nc([C@]2(O)CC[C@@H](C(=O)NCc3ccc(-n4cccn4)nc3)C2)c1` [Compound 103], the IC50 on RET V804L and at wild type RET was less than 10 nM each time.
As to `Cc1cc(Nc2cc(C)[nH]n2)nc([C@@H]2CC[C@@H](C(=O)N[C@@H](C)c3ccc(-n4cc(F)cn4)nc3)C2)n1` (single isomer, unassigned) [Compound 109], the IC50 on RET V804L and on wild type RET was less than 10 nM in each case.
On to `Cc1cc(Nc2cc(C)[nH]n2)nc([C@]2(O)CC[C@H](C(=O)NCc3ccc(-n4cccn4)nc3)C2)c1` [Compound 102], for which the IC50 at RET V804L and on wild type RET was 10 to 100 nM in each case.
`Cc1cc(Nc2cc(C)[nH]n2)nc([C@]2(O)CC[C@@H](C(=O)N[C@@H](C)c3ccc(-n4cc(F)cn4)nc3)C2)c1` (single isomer, unassigned) [Compound 121]: the IC50 on wild type RET was less than 10 nM.
As for `Cc1cc(Nc2cc(C)[nH]n2)nc([C@@]2(O)CC[C@@H](C(=O)NCc3ccc(-n4cccn4)nc3)C2)c1` [Compound 101], the IC50 on RET V804L was less than 10 nM; on wild type RET, 10 to 100 nM.
The corresponding values for `Cc1cc(Nc2cc(C)[nH]n2)nc([C@H]2CC[C@](C)(C(=O)N[C@@H](C)c3ccc(-n4cc(F)cn4)nc3)C2)n1` [Compound 114] are less than 10 nM and less than 10 nM.
As for `Cc1cc(Nc2cc(C3CC3)[nH]n2)nc([C@@]2(O)CC[C@H](C(=O)NCc3ccccc3)C2)c1` [Compound 100], the IC50 was less than 10 nM at RET V804L and 10 to 100 nM on wild type RET.
As for `Cc1cc(Nc2cc(C)[nH]n2)nc(C2CCC(C(=O)N[C@@H](C)c3ccc(-n4cc(F)cn4)nc3)C2)n1` (mixture of isomers) [Compound 106, N—((S)-1-(6-(4-fluoro-1H-pyrazol-1-yl)pyridin-3-yl)ethyl)-3-(4-methyl-6-((5-methyl-1H-pyrazol-3-yl)amino)pyrimidin-2-yl)cyclopentane-1-carboxamide], the IC50 at RET V804L and at wild type RET was less than 10 nM in each case.
For the compound `Cc1cc(Nc2cc(C)[nH]n2)nc([C@H]2CC[C@@](C)(C(=O)N[C@@H](C)c3ccc(-n4cc(F)cn4)nc3)C2)n1` [Compound 113], the IC50 at RET V804L and on wild type RET was 10 to 100 nM each time.
Turning to `Cc1cc(Nc2cc(C)[nH]n2)nc(C2(O)CCC(C(=O)NCc3ccc(-n4nc(C)cc4C)nc3)C2)c1` (mixture of isomers) [Compound 111], the IC50 at RET V804L and at wild type RET was less than 10 nM in each case.
